Assay results taken from US10730836B2, “Forms of apremilast” (Johnson Matthey Public Limited Company, priority 2016, dated 2020).

Experiments:
[1] = Solid form stability under stressed conditions (45° C., relative humidity>95%); type: physicochemical; details: under 45° C. and humid conditions (relative humidity>95%)
Protocol: (§1) Apremilast Form H, a solvate, is a unique crystalline phase. […] FIG. 1 is a representative XPRD pattern for a representative sample of apremilast Form H made according to Example 1. Apremilast Form H is stable under stressed conditions, i.e. at under 45° C. and humid conditions (relative humidity>95%).
as §1, with “I,” for “H,”, “2” for “1”, “XRPD” for “XPRD”, “I” for “H”, “2.” for “1.”

[2] = Drying under vacuum at 45° C. (solid form change); type: physicochemical; details: dried under vacuum at 45° C.
Protocol: Apremilast Form J, a solvate, is a unique crystalline phase. […] FIG. 3 is a representative XRPD pattern for a representative sample of apremilast Form J made according to Example 3.
(§2) Apremilast Form M, a solvate, is a unique crystalline phase. FIG. 5 is a representative XRPD pattern for a representative sample of apremilast Form M made according to Example 5.
[…] The resulting solids are analyzed by XRPD and identified as apremilast Form K.

[3] = test system: human rheumatoid synovial cells; details: cited from earlier work
phosphodiesterase (PDE4) = details: cited from earlier work
[4] = Moisture uptake on exposure to air (DSC/TGA); type: physicochemical; details: DSC thermogram and TGA plot show water in sample
Protocol: DSC data were collected using a TA Instruments Q10 DSC. Approximately, samples (2-8 mg) were placed in unsealed but covered hermetic alodined aluminum sample pans and scanned from 30 to 300° C. at a rate of 10° C./min under a nitrogen purge of 50 mL/min.
TGA data were collected using a TA Instruments TGA Q500. Approximately, samples (5-10 mg) were placed in an open, pre-tared aluminum sample pan and scanned from 25 to 300° C. at a rate of 10° C./min using a nitrogen purge at 60 mL/min.
(§3) Apremilast Form K, an anhydrous form, is a unique crystalline phase. […] FIG. 4 is a representative XRPD pattern for a representative sample of apremilast Form K made according to Example 4.

[5] = Exposure to humidity (XRPD); type: physicochemical; details: exposed to high humidity
Protocol: (§4) XRPD patterns were obtained using a Bruker D8 Advance equipped with a Cu Kα radiation source (λ=1.54° A), a 9-position sample holder and a LYNXEYE super speed detector. Samples were placed on zero-background, silicon plate holders for analysis. One skilled in the art would recognize that the ° 2θ values and the relative intensity values are generated by performing a peak search on the measured data and the d-spacing values are calculated by the instrument from the ° 2θ values using Bragg's equation. One skilled in the art would further recognize that the relative intensity for the measured peaks may vary as a result of sample preparation, orientation and instrument used, for example.
as §3, §2

[6] = Prolonged slurry (form conversion, XRPD); type: physicochemical; details: XRPD FIG. 6
Protocol: as §4, §2

CCOc1cc([C@@H](CS(C)(=O)=O)N2C(=O)c3cccc(NC(C)=O)c3C2=O)ccc1OC [Apremilast Form H, (+)-2-[1-(3-ethoxy-4-methoxyphenyl)-2-methylsulfonylethyl]-4-acetylaminoisoindoline-1,3-dione]
stability under stressed conditions [1]: stable

CCOc1cc([C@@H](CS(C)(=O)=O)N2C(=O)c3cccc(NC(C)=O)c3C2=O)ccc1OC [Apremilast Form J, (+)-2-[1-(3-ethoxy-4-methoxyphenyl)-2-methylsulfonylethyl]-4-acetylaminoisoindoline-1,3-dione]
solid form behaviour when dried under vacuum [2]: loses formic acid when dried under vacuum at 45 °C and undergoes a form change, resulting in the anhydrous Form K

CCOc1cc([C@@H](CS(C)(=O)=O)N2C(=O)c3cccc(NC(C)=O)c3C2=O)ccc1OC [Apremilast, (+)-2-[1-(3-ethoxy-4-methoxyphenyl)-2-methylsulfonylethyl]-4-acetylaminoisoindoline-1,3-dione]
inhibition of spontaneous production of TNF-alpha [3]: inhibits spontaneous production of TNF-alpha | PDE4 inhibition (phosphodiesterase (PDE4)): inhibits PDE4

CCOc1cc([C@@H](CS(C)(=O)=O)N2C(=O)c3cccc(NC(C)=O)c3C2=O)ccc1OC [Form K, (+)-2-[1-(3-ethoxy-4-methoxyphenyl)-2-methylsulfonylethyl]-4-acetylaminoisoindoline-1,3-dione]
moisture uptake when exposed to air [4]: picks up moisture | form change when exposed to humidity [5]: does not undergo a significant change

CCOc1cc([C@@H](CS(C)(=O)=O)N2C(=O)c3cccc(NC(C)=O)c3C2=O)ccc1OC [Form M, (+)-2-[1-(3-ethoxy-4-methoxyphenyl)-2-methylsulfonylethyl]-4-acetylaminoisoindoline-1,3-dione]
solid form behaviour when dried under vacuum [2]: tends to lose some of the acetic acid when dried under vacuum at 45 °C and results in a semi-crystalline form | form conversion upon prolonged slurry [6]: converts to apremilast
